Laboratory results taken from the NIST ThermoML archive (doi:10.1021/je049777o).
“And” between values parts separate entries of the source, which are not always exact repeats. Identical values can stand only once. ± gives the expanded uncertainty stated by the source.

Assays:
[1] = xn = mol fraction of the nth substance listed; details: 101.3 kPa, Liquid
[2] = 101.3 kPa, Liquid

Compound	mass density ([2]; 293.15 K)	viscosity ([2]; 293.15 K)	mass density ([2]; 298.15 K)	viscosity ([2]; 298.15 K)	mass density ([2]; 303.15 K)	viscosity ([2]; 303.15 K)	mass density ([2]; 313.15 K)	viscosity ([2]; 313.15 K)	mass density ([2]; 323.15 K)	viscosity ([2]; 323.15 K)	mass density ([2]; 333.15 K)	viscosity ([2]; 333.15 K)	mass density ([2]; 343.15 K)	viscosity ([2]; 343.15 K)	further results
CCCCCC [hexane] + COC(=O)OC	–	–	–	–	–	–	–	–	–	–	–	–	–	–	mass density ([1]; 293.15 K, x2 = 0): 662 ± 0.67 kg/m3; viscosity ([1]; 293.15 K, x2 = 0): 0.302 ± 0.0075 mPa·s; mass density ([1]; 298.15 K, x2 = 0): 657.44 ± 0.68 kg/m3; viscosity ([1]; 298.15 K, x2 = 0): 0.2886 ± 0.0074 mPa·s; mass density ([1]; 303.15 K, x2 = 0): 652.87 ± 0.69 kg/m3; viscosity ([1]; 303.15 K, x2 = 0): 0.2774 ± 0.0073 mPa·s; mass density ([1]; 313.15 K, x2 = 0): 643.55 ± 0.7 kg/m3; viscosity ([1]; 313.15 K, x2 = 0): 0.2504 ± 0.0072 mPa·s; mass density ([1]; 323.15 K, x2 = 0): 634.07 ± 0.71 kg/m3; viscosity ([1]; 323.15 K, x2 = 0): 0.2339 ± 0.0071 mPa·s; mass density ([1]; 333.15 K, x2 = 0): 624.39 ± 0.73 kg/m3; viscosity ([1]; 333.15 K, x2 = 0): 0.2114 ± 0.007 mPa·s
CCCCCC [hexane]	662 ± 0.67 kg/m3	0.302 ± 0.0075 mPa·s	657.44 ± 0.68 kg/m3	0.2886 ± 0.0074 mPa·s	652.87 ± 0.69 kg/m3	0.2774 ± 0.0073 mPa·s	643.55 ± 0.7 kg/m3	0.2504 ± 0.0072 mPa·s	634.07 ± 0.71 kg/m3	0.2339 ± 0.0071 mPa·s	624.39 ± 0.73 kg/m3	0.2114 ± 0.007 mPa·s	–	–	–
Clc1ccccc1 [chlorobenzene]	1106.74 ± 0.4 kg/m3	0.8084 ± 0.021 mPa·s	1101.33 ± 0.4 kg/m3	0.7422 ± 0.019 mPa·s	1095.96 ± 0.39 kg/m3	0.7053 ± 0.018 mPa·s	1085.06 ± 0.38 kg/m3	0.631 ± 0.017 mPa·s	1074.26 ± 0.36 kg/m3	0.5677 ± 0.015 mPa·s	1063.32 ± 0.35 kg/m3	0.5069 ± 0.014 mPa·s	1052.44 ± 0.34 kg/m3	0.4658 ± 0.013 mPa·s	–
CCCCCCC [heptane] + COC(=O)OC	–	–	–	–	–	–	–	–	–	–	–	–	–	–	mass density ([1]; 293.15 K, x2 = 0): 687.14 ± 0.71 kg/m3; viscosity ([1]; 293.15 K, x2 = 0): 0.4038 ± 0.0083 mPa·s; mass density ([1]; 298.15 K, x2 = 0): 682.91 ± 0.71 kg/m3; viscosity ([1]; 298.15 K, x2 = 0): 0.3831 ± 0.0082 mPa·s; mass density ([1]; 303.15 K, x2 = 0): 678.61 ± 0.71 kg/m3; viscosity ([1]; 303.15 K, x2 = 0): 0.3629 ± 0.008 mPa·s; mass density ([1]; 313.15 K, x2 = 0): 669.91 ± 0.72 kg/m3; viscosity ([1]; 313.15 K, x2 = 0): 0.3274 ± 0.0078 mPa·s; mass density ([1]; 323.15 K, x2 = 0): 661.16 ± 0.73 kg/m3; viscosity ([1]; 323.15 K, x2 = 0): 0.298 ± 0.0076 mPa·s; mass density ([1]; 333.15 K, x2 = 0): 652.26 ± 0.75 kg/m3; viscosity ([1]; 333.15 K, x2 = 0): 0.2704 ± 0.0074 mPa·s; mass density ([1]; 343.15 K, x2 = 0): 643.31 ± 0.76 kg/m3; viscosity ([1]; 343.15 K, x2 = 0): 0.2487 ± 0.0072 mPa·s
CCCCCCC [heptane]	687.14 ± 0.71 kg/m3	0.4038 ± 0.0083 mPa·s	682.91 ± 0.71 kg/m3	0.3831 ± 0.0082 mPa·s	678.61 ± 0.71 kg/m3	0.3629 ± 0.008 mPa·s	669.91 ± 0.72 kg/m3	0.3274 ± 0.0078 mPa·s	661.16 ± 0.73 kg/m3	0.298 ± 0.0076 mPa·s	652.26 ± 0.75 kg/m3	0.2704 ± 0.0074 mPa·s	643.31 ± 0.76 kg/m3	0.2487 ± 0.0072 mPa·s	–
COC(=O)OC [dimethyl carbonate]	1069.54 ± 0.24 kg/m3	0.6163 ± 0.016 mPa·s and 0.6173 ± 0.0096 mPa·s	1062.95 ± 0.23 kg/m3	0.5771 ± 0.016 mPa·s and 0.5734 ± 0.0093 mPa·s	1056.35 ± 0.23 kg/m3	0.5433 ± 0.015 mPa·s and 0.5403 ± 0.009 mPa·s	1043.01 ± 0.21 kg/m3	0.482 ± 0.014 mPa·s and 0.4807 ± 0.0086 mPa·s	1029.59 ± 0.19 kg/m3	0.4319 ± 0.013 mPa·s and 0.427 ± 0.0082 mPa·s	1016 ± 0.18 kg/m3	0.3893 ± 0.012 mPa·s	1002.32 ± 0.16 kg/m3	0.3527 ± 0.011 mPa·s	–
COC(=O)OC [dimethyl carbonate] + Clc1ccccc1	–	–	–	–	–	–	–	–	–	–	–	–	–	–	mass density ([1]; 293.15 K, x1 = 1): 1069.54 ± 0.24 kg/m3; viscosity ([1]; 293.15 K, x1 = 1): 0.6163 ± 0.016 mPa·s; mass density ([1]; 298.15 K, x1 = 1): 1062.95 ± 0.23 kg/m3; viscosity ([1]; 298.15 K, x1 = 1): 0.5771 ± 0.016 mPa·s; mass density ([1]; 303.15 K, x1 = 1): 1056.35 ± 0.23 kg/m3; viscosity ([1]; 303.15 K, x1 = 1): 0.5433 ± 0.015 mPa·s; mass density ([1]; 313.15 K, x1 = 1): 1043.01 ± 0.21 kg/m3; viscosity ([1]; 313.15 K, x1 = 1): 0.482 ± 0.014 mPa·s; mass density ([1]; 323.15 K, x1 = 1): 1029.59 ± 0.19 kg/m3; viscosity ([1]; 323.15 K, x1 = 1): 0.4319 ± 0.013 mPa·s; mass density ([1]; 333.15 K, x1 = 1): 1016 ± 0.18 kg/m3; viscosity ([1]; 333.15 K, x1 = 1): 0.3893 ± 0.012 mPa·s; mass density ([1]; 343.15 K, x1 = 1): 1002.32 ± 0.16 kg/m3; viscosity ([1]; 343.15 K, x1 = 1): 0.3527 ± 0.011 mPa·s
